Results published in article PMC11554305, “Functional identification of soluble uric acid as an endogenous inhibitor of CD38” (eLife, 2024).

Assays:
CD38 [1] = target: T1, CD38 (Mus musculus, UniProt P56528); test: Hydrolase and cyclase activities of human and murine CD38; assay type: biochemical; details: lung tissues from WT mice, OA 0–5 mM
T1 construct: host or cells: recombinant hCD38, cells and mouse tissues
T1 sequence (P56528 1-304): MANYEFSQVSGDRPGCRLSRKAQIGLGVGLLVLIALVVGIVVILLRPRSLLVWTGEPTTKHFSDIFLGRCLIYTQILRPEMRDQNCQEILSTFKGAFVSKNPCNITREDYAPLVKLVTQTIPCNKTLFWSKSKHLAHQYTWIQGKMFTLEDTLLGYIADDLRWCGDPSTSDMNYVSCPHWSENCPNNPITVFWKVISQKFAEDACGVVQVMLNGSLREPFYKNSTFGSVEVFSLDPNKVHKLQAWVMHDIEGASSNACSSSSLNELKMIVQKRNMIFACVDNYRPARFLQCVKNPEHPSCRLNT
Protocol: (§1) The hydrolase activity of CD38 was measured according to a previous report ([de Oliveira et al., 2018]) with minor modifications. CD38 hydrolase activity was measured using 50 μM ε-NAD^+ as a substrate in hydrolase reaction buffer (250 mM sucrose, 40 mM Tris-HCl, pH 7.4). Briefly, cells or tissues were directly homogenized in blank reaction buffer on ice, and recombinant hCD38 was diluted in blank reaction buffer for subsequent assays. The tissue homogenates were centrifuged to collect the supernatant for enzyme assays. The loading volume of enzyme was 4–30 μL, the total volume of the reaction system was 3 mL. To detect enzyme inhibition, except when specified, the ligands were directly dissolved in hydrolase reaction buffer before pH adjustment, after which, the pH was immediately adjusted to 7.4. All reaction buffers, with or without ligands, were freshly prepared before each assay. For measurement of hydrolase activity, 3 mL reaction buffer containing enzyme, ε-NAD^+, and ligands at indicated concentrations was maintained at 37°C with constant stirring.
(§2) The cyclase activity of CD38 was measured as previously described ([Higashida et al., 1999]; [Jin et al., 2007]). CD38 cyclase activity was measured using 60 μM NGD as a substrate in cyclase reaction buffer (100 mM KCl, 10 μM CaCl2, and 50 mM Tris-HCl, pH 6.6). Tissues were cut into pieces and suspended in the buffer (5 mM MgCl2, 10 mM Tris-HCl, pH 7.3) at 4°C for 30 min. Then, the suspension was homogenized on ice, and the supernatant was collected after centrifugation. To collect the crude membrane fractions, the supernatant was centrifuged at 105,000×g for 30 min. The final pellet was resuspended in 10 mM Tris-HCl solution (pH 6.6) for cyclase assay. Homogenates of THP-1 or A549 cells, and recombinant hCD38 were used directly for cyclase assays. The loading volume of enzyme was 4–20 μL, the total volume of reaction system was 3 mL. To detect enzyme inhibition, except when specified, the ligands were directly dissolved in cyclase reaction buffer before pH adjustment, after which, the pH was immediately adjusted to 6.6. All reaction buffers, with or without ligands, were freshly prepared before each assay. For measurement of cyclase activity, 3 mL reaction buffer containing enzyme, NGD, and ligands at indicated concentrations was maintained at 37°C with constant stirring.
(§3) The reaction buffer for hydrolase or cyclase assays was excited at 300 nm, and fluorescence emission was measured every second at 410 nm by Shimazu RF-6000 spectrofluorometer. Hydrolase or cyclase activity was calculated from the linear portion of the time course by fitting a linear function to the data points recorded within 5 min.
(§4) Guanosine was dissolved in DMSO and diluted in the reaction buffer for subsequent assays.
(§5) For reversibility test, recombinant hCD38 was pre-incubated for 30 min in four conditions: (1) control reaction buffer; (2) in the presence of 100 μM substrate (ε-NAD^+ or NGD); (3) 500 μM sUA; (4) both substrate and sUA. Subsequently, the enzyme was diluted 100-fold in reaction buffer in the presence or absence of 500 μM sUA for activity assays using ε-NAD^+ or NGD. Naïve THP-1 and A549 cells were incubated with RPMI-1640 medium in the presence or absence of 500 μM sUA for 2 hr. The cells were collected and homogenized in the reaction buffer on ice with or without 500 μM sUA, samples were then diluted 100-fold in reaction buffer with or without 500 μM sUA for enzyme assay. Control group was not treated with sUA in all steps; sUA group was treated with sUA in each step; sUA release group was treated with sUA prior to dilution in sUA-free buffer for enzyme assays.

CD38 [2] = target: T2, CD38 (Homo sapiens, UniProt P28907); test: as above; assay type: biochemical
T2 construct: host or cells: recombinant hCD38, cells and mouse tissues
T2 sequence (P28907 43-300): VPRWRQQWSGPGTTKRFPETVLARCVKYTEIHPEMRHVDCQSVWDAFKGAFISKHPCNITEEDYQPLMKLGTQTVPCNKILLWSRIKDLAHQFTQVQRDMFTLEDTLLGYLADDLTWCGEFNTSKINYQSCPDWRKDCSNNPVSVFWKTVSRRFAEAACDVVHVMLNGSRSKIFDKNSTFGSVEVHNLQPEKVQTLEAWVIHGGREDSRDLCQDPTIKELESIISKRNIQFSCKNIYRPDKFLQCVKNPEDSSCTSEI
Protocol: as §1, §2, §3, §4, §5

SMILES	IC50 for CD38 (in words) (CD38 [1])	Reversibility of the inhibitory effects on CD38 (CD38 [2]; 30 min pre-incubation with 500 μM sUA, 100-fold dilution, hCD38, A549, THP-1)	Mode of inhibition of CD38 (CD38 [2]; different substrate concentrations, Figure 1C, D)
O=C(O)c1nc(=O)[nH]c(=O)[nH]1 [OA, oxonic acid, reference compound]	millimolar range	–	–
O=c1[nH]c(=O)c2[nH]c(=O)[nH]c2[nH]1 [sUA, uric acid]	–	reversible	non-competitive inhibitor
